In patent US12667568B2, “Compositions and methods for the treatment and diagnosis of cancer” (The General Hospital Corporation, priority 2020, dated 2026):

Columns and labels:
Type in all cases: cell-based
[1] = test system: U2OS (EJ5-GFP) cells; assay: EJ5-GFP NHEJ reporter assay; settings: 2.5 μM/L, 6 h pre-treatment, TRDMT1 wild type cells
Procedure: (§1) FIGS. 6A-6E show TRDMT1 Inhibitors specifically sensitizes cells to DNA damage agents. (FIG. 6A) SCE WT cells were transfected with TA-KR and were cultured with 2.5 μM/L compound YW-1842 or not for 6 hours, m^5C (n=3, 50 cells per replicated, Mean±SD) was stained and quantified. DR-GFP (FIG. 6B) or EJ5-GFP (FIG. 6C) cells were pre-treated with 2.5 μM/L compound YW-1842 for 6 h or TRDMT1 siRNA for 48 h, or DMSO. Then the cells were transfected with NLS-I-SceI plasmid to induce DSB. The efficiency of HR (FIG. 6B) or NHEJ (FIG. 6C) was analyzed by flow-cytometry (n=3, Mean f SD). (FIG. 6D) After seeding, MCF-7, HCC1954, and HCC1937 cells were pre-treated with or without 2.5 μM/L compound YW-1842 for 6 h, then cultured with chemotherapy drugs (1 μM/L Cisplatin; 1 μM/L ATRi AZ20; […]; 1 μM/L PARPi Olaparib for 10 days. The survival rate of these cells was analyzed (n=3, Mean±SD). (FIG. 6E) TRDMT1 KO U2OS cells were transfected with GFP-TRDMT1^WT or GFP-TRDMT1^G155V with or without 2.5 μM/L compound YW-1842, the survival rate of these cells after IR or Cisplatin was shown (n=3, Mean±SD).
(§2) Using a previously described method[Lan, L. et al. The ACF1 complex is required for DNA double-strand break repair in human cells. […] The GFP signal arising from the recombination (HR) or non-homologous end joining (NHEJ) events were measured by flow cytometry.

[2] = test system: TRDMT1 KO U2OS cells; assay: Cell survival assay in TRDMT1 KO cells after IR or Cisplatin; settings: 2.5 μM/L
Procedure: as §1
Approximately 500 U2OS/TRDMT1 KO U2OS/MCF-7/HCC1954/HCC1937 cells and TRDMT1 siRNA or GFP-TRDMT1 WT/G155V/K251R transfected cells were seeded in 6 cm dish with or without TRDMT1 inhibitors (2.5 μM/L). […]

[3] = test system: U2OS (DR-GFP) cells; assay: DR-GFP HR reporter assay; settings: 2.5 μM/L, 6 h pre-treatment, versus DMSO
Procedure: as §1, §2

[4] = molecular target: T1, TRDMT1 (Homo sapiens, UniProt O14717); assay: m5C staining at TA-KR DNA damage sites
T1 construct: SCE WT cells were transfected with TA-KR and were cultured with 2.5 μM/L compound YW-1842 or not for 6 hours; endogenous in cells
T1 sequence (O14717 1-391): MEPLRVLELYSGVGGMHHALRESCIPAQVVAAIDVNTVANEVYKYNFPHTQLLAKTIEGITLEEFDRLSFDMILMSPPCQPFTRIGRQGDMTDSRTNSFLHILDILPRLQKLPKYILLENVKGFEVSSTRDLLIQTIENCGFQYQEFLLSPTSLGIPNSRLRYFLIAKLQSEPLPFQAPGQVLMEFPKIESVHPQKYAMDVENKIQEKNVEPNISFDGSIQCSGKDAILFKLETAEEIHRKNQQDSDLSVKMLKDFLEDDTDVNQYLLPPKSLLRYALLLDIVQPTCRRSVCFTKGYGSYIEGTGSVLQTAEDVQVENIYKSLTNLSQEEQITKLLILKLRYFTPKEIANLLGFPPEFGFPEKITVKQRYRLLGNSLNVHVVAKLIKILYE
Procedure: as §1
The Olympus FV1000 confocal microscopy system (Cat. FIOPRDMYR-1, Olympus) and FV1000 software were used for the acquisition of images. Cells were cultured in 35 mm glass-bottom dishes (MatTek, P35GC-1.5-14-C) before observation. […] The intensity was measured by ImageJ 1.52i software. […]

[5] = test system: γ-H2AX foci; assay: γ-H2AX foci clearance after damage; settings: 2.5 μM/L YW-1842, cells after IR
Procedure: FIGS. 6F-6G show TRDMT1 inhibitor YW-1842 delays the repair of DSBs at the transcribed genome. (FIG. 6F) U2OS or MCF7 cells were treated with or without compound YW-1842 at the indicated concentration. […]
Cells for immunofluorescence observation were fixed in 4% PFA (Affymetrix, 19943 1 LT) at room temperature for 15 min and further treated with 0.2% triton for 10 min. They were then blocked by 3% BSA (SIGMA, A-7030) at room temperature for 1 h. Primary antibody for RAD51(ab63801, Abcam, 1:200)), RAD52(sc-365341, Santa Cruz, CA, USA, 1:500), TRIM28 (ab10484, Abcam, 1:500), γH2AX ser139 (JBW301, 05-636, EMD Millipore, 1:200), were incubated with cells at 4° C. overnight. After washing with 0.05% PBS-Tween (PBST), the cells were incubated with secondary antibody for 1 h at room temperature.

In the case of `COc1cc2nc(-n3cc(-c4ccc(S(C)(=O)=O)cc4)cn3)nc(-c3ccsc3)c2cc1OC` [YW-1842, 6,7-dimethoxy-2-(4-(4-(methylsulfonyl)phenyl)-1H-pyrazol-1-yl)-4-(thiophen-3-yl)quinazoline], the “non-homologous end joining (NHEJ) efficiency” value [1] was “no obvious changes”, the “sensitization of TRDMT1 KO cells to IR or Cisplatin” value [2] was “does not sensitize TRDMT1 KO” and the “HR-mediated repair of I-SceI-generated DSBs (DR-GFP)” value [3] was “diminished the repair of I-SceI-generated DSBs”. The “m^5C inhibitory activity” value ([4]; 2.5 μM/L, 6 hours, TA-KR sites (FIG. 6A)) was “almost equivalent to TRDMT1 depletion”, the “inhibiting TRDMT1 recruitment, m^5C formation and HR efficiency at DNA damage sites” value ([4]; summary statement) was “performed well” and the “DNA repair efficiency, clearance of γ-H2AX foci” value [5] was “delayed clearance of γ-H2AX foci”.
